Laboratory results taken from patent US20050282743A1, “Molecular interactions in cells” (Arbor Vita Corporation, priority 2001, published 2005).
Ends that are not written are not given here. Peptide text beside a SMILES is read from it. * marks the point of attachment. Biotin = O=C1N[C@H]2[C@H](CS[C@H]2CCCCC(=O)*)N1

Assays:
[1] = biological target: T1, PDZ protein (GST-PDZ fusion) (Homo sapiens, UniProt O14745); experiment: G' assay (10 uM PL peptide), results of TABLE 7 and TABLE 12; format: binding
T1 construct: made in house; host or cells: E. coli (DH5alpha, BL21 or JM109)
T1 sequence (O14745 1-358): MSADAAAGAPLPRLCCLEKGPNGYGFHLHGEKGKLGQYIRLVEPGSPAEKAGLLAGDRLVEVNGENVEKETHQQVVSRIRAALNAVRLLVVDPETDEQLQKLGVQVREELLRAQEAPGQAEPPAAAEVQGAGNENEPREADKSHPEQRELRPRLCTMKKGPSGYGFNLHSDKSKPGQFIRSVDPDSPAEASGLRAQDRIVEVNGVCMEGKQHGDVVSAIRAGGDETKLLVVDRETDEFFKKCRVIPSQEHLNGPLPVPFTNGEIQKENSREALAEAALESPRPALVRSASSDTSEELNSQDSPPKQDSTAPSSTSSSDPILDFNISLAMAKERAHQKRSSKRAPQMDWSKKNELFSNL
In short: (§1)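 Biotin-PL peptide (N-term label), 10 uM vs GST-PDZ; protein 5 ug/ml by default. A450 nm binned: 1 = 0-1, 2 = 1-2, 3 = 2-3, 4 = 3-4, 5 = >4 on >2 repeats, 0 = no binding.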

[2] = biological target: T2, PDZ protein (GST-PDZ fusion) (Homo sapiens, UniProt Q9NY99); experiment: as above; format: binding; details: PDZ Syntrophin gamma-2, PDZ Domain 1
T2 construct: made in house; host or cells: E. coli (DH5alpha, BL21 or JM109)
T2 sequence (Q9NY99 1-539): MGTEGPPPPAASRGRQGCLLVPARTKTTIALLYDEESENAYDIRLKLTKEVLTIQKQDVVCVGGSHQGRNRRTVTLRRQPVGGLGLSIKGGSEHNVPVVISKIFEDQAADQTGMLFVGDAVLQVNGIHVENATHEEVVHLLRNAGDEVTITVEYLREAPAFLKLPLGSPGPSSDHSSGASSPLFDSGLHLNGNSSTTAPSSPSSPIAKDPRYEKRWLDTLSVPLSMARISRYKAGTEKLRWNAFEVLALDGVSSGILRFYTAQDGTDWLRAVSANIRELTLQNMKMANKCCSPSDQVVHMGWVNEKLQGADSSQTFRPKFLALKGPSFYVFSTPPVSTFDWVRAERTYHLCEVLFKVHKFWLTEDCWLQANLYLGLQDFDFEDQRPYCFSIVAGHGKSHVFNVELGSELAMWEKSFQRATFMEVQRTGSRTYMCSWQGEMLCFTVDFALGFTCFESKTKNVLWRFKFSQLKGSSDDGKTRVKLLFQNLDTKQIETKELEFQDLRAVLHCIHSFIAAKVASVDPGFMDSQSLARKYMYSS
In short: as §1

Classification ([1]; PDZ EBP50, PDZ Domain 1)	Classification ([1]; PDZ EBP50, PDZ Domain 2)	Compound	Classification [2]
		TQGFPGPATWRRISSLESEV	2 (A450 nm 1-2)
2 (A450 nm 1-2)	1 (A450 nm 0-1)	CC(C)C[C@H](NC(=O)CNC(=O)[C@@H](NC(=O)[C@H](CO)NC(=O)[C@H](CC(N)=O)NC(=O)[C@H](Cc1ccccc1)NC(=O)CNC(=O)[C@H](C)NC(=O)[C@H](C)NC(=O)[C@H](Cc1ccccc1)NC(=O)[C@@H](NC(=O)CCCC[C@@H]1SC[C@@H]2NC(=O)N[C@@H]21)[C@@H](C)O)[C@@H](C)O)C(=O)N1CCC[C@H]1C(=O)N[C@@H](Cc1c[nH]cn1)C(=O)N[C@@H](CO)C(=O)N[C@H](C(=O)N[C@H](C(=O)N[C@@H](CCCNC(=N)N)C(=O)N[C@H](C(=O)O)C(C)C)[C@@H](C)O)[C@@H](C)O [Neuroligin] (Biotin-TFAAGFNSTGLPHSTTRV-OH; C-terminus assumed)	
1 (A450 nm 0-1)	2 (A450 nm 1-2)	LASKSAEEGKQIPDSLSTDL (Biotin-LASKSAEEGKQIPDSLSTDL) [Dock2]	
		CC(C)C[C@H](NC(=O)[C@H](C)NC(=O)[C@H](CO)NC(=O)CNC(=O)[C@@H](NC(=O)CCCC[C@@H]1SC[C@@H]2NC(=O)N[C@@H]21)[C@@H](C)O)C(=O)N[C@@H](CCC(N)=O)C(=O)N[C@@H](C)C(=O)N[C@@H](Cc1c[nH]c2ccccc12)C(=O)N[C@@H](CCCNC(=N)N)C(=O)N[C@@H](Cc1c[nH]cn1)C(=O)N[C@H](C(=O)N[C@@H](CO)C(=O)N[C@@H](CCCNC(=N)N)C(=O)N[C@@H](CCC(N)=O)C(=O)N[C@@H](C)C(=O)N[C@H](C(=O)N[C@@H](CCC(=O)O)C(=O)N[C@@H](CO)C(=O)N[C@H](C(=O)N[C@H](C(=O)O)C(C)C)[C@@H](C)O)[C@@H](C)O)[C@@H](C)O [HPV E6 #66 (modified)] (Biotin-TGSALQAWRHTSRQATESTV-OH; C-terminus assumed)	1 (A450 nm 0-1)
		CC(C)C[C@H](NC(=O)[C@H](CC(=O)O)NC(=O)[C@H](CO)NC(=O)[C@H](CCC(=O)O)NC(=O)CNC(=O)[C@H](Cc1ccc(O)cc1)NC(=O)[C@H](CC(C)C)NC(=O)[C@H](C)NC(=O)[C@H](CO)NC(=O)[C@H](CO)NC(=O)[C@H](Cc1ccccc1)NC(=O)[C@H](C)NC(=O)[C@H](C)NC(=O)[C@H](Cc1ccc(O)cc1)NC(=O)[C@H](CC(=O)O)NC(=O)[C@H](CC(C)C)NC(=O)[C@H](C)NC(=O)CNC(=O)[C@@H]1CCCN1C(=O)[C@@H](NC(=O)CCCC[C@@H]1SC[C@@H]2NC(=O)N[C@@H]21)C(C)C)C(=O)O [a-actinin 2] (Biotin-VPGALDYAAFSSALYGESDL-OH; C-terminus assumed)	1 (A450 nm 0-1)
5 (A450 nm of 4 more than 2× repeated)	2 (A450 nm 1-2)	PPATPSPRLALPAHHNATRL (Biotin-PPATPSPRLALPAHHNATRL) [Na+/Pi cotransporter 2]	1 (A450 nm 0-1)
		CSCC[C@H](NC(=O)[C@H](C)NC(=O)[C@H](CCCNC(=N)N)NC(=O)CNC(=O)[C@@H](NC(=O)[C@H](Cc1c[nH]c2ccccc12)NC(=O)[C@H](CCCNC(=N)N)NC(=O)CNC(=O)CCCC[C@@H]1SC[C@@H]2NC(=O)N[C@@H]21)[C@@H](C)O)C(=O)N[C@@H](CO)C(=O)N[C@@H](C)C(=O)N[C@@H](Cc1c[nH]c2ccccc12)C(=O)N[C@@H](CCCCN)C(=O)N1CCC[C@H]1C(=O)N[C@H](C(=O)N[C@@H](CCCNC(=N)N)C(=O)N[C@@H](CCCNC(=N)N)C(=O)N[C@@H](CCC(=O)O)C(=O)N[C@H](C(=O)N[C@@H](CCC(=O)O)C(=O)N[C@H](C(=O)O)C(C)C)[C@@H](C)O)[C@@H](C)O [HPV E6 #35 (modified)] (Biotin-GRWTGRAMSAWKPTRRETEV-OH; C-terminus assumed)	3 (A450 nm 2-3)
		CC[C@H](C)[C@H](NC(=O)[C@H](CCC(N)=O)NC(=O)CCCC[C@@H]1SC[C@@H]2NC(=O)N[C@@H]21)C(=O)N[C@@H](CO)C(=O)N1CCC[C@H]1C(=O)NCC(=O)NCC(=O)N[C@@H](CC(C)C)C(=O)N[C@@H](CCC(=O)O)C(=O)N1CCC[C@H]1C(=O)N1CCC[C@H]1C(=O)N[C@@H](CO)C(=O)N[C@@H](CCC(=O)O)C(=O)N[C@@H](CCCCN)C(=O)N[C@@H](Cc1c[nH]cn1)C(=O)N[C@@H](Cc1ccccc1)C(=O)N[C@@H](CCCNC(=N)N)C(=O)N[C@@H](CCC(=O)O)C(=O)N[C@H](C(=O)N[C@@H](CCC(=O)O)C(=O)N[C@H](C(=O)O)C(C)C)[C@@H](C)O [Tax]	1 (A450 nm 0-1)
2 (A450 nm 1-2)	2 (A450 nm 1-2)	CC[C@H](C)[C@H](NC(=O)CNC(=O)[C@H](CO)NC(=O)[C@H](Cc1ccccc1)NC(=O)[C@@H](NC(=O)[C@H](CS)NC(=O)CNC(=O)CNC(=O)[C@H](C)NC(=O)[C@@H]1CCCN1C(=O)[C@@H](NC(=O)[C@@H]1CCCN1C(=O)CCCC[C@@H]1SC[C@@H]2NC(=O)N[C@@H]21)[C@@H](C)CC)[C@@H](C)O)C(=O)N[C@@H](Cc1ccccc1)C(=O)N1CCC[C@H]1C(=O)N[C@H](C(=O)N[C@@H](CC(C)C)C(=O)N[C@H](C(=O)N[C@@H](CO)C(=O)N1CCC[C@H]1C(=O)N[C@@H](CC(C)C)C(=O)O)[C@@H](C)O)[C@@H](C)O [KIA 1481] (Biotin-PIPAGGCTFSGIFPTLTSPL-OH; C-terminus assumed)	

Compound	Classification ([1]; PDZ EBP50, PDZ Domain 1)	Classification ([1]; PDZ EBP50, PDZ Domain 2)	Classification [2]
CC[C@H](C)[C@H](NC(=O)[C@H](CC(=O)O)NC(=O)[C@H](CCC(=O)O)NC(=O)[C@H](CCCNC(=N)N)NC(=O)[C@@H](NC(=O)CCCC[C@@H]1SC[C@@H]2NC(=O)N[C@@H]21)[C@@H](C)O)C(=O)N[C@@H](Cc1ccc(O)cc1)C(=O)N[C@H](C(=O)N[C@@H](CC(N)=O)C(=O)N[C@@H](Cc1ccc(O)cc1)C(=O)N1CCC[C@H]1C(=O)N[C@H](C(=O)N[C@@H](Cc1ccccc1)C(=O)N[C@@H](CO)C(=O)N[C@@H](CCCNC(=N)N)C(=O)N[C@@H](CCCNC(=N)N)C(=O)N1CCC[C@H]1C(=O)N[C@@H](CCCCN)C(=O)N[C@H](C(=O)N[C@@H](CCCNC(=N)N)C(=O)N[C@H](C(=O)O)C(C)C)[C@@H](C)O)[C@@H](C)O)C(C)C [DNAM-1] (Biotin-TREDIYVNYPTFSRRPKTRV-OH; C-terminus assumed)	1 (A450 nm 0-1)	1 (A450 nm 0-1)	
CC(C)C[C@H](NC(=O)[C@H](C)NC(=O)[C@@H](NC(=O)[C@H](CCC(=O)O)NC(=O)[C@H](CCCNC(=N)N)NC(=O)[C@H](CCCNC(=N)N)NC(=O)CNC(=O)[C@H](CCC(N)=O)NC(=O)[C@H](CC(C)C)NC(=O)[C@H](CCCNC(=N)N)NC(=O)CNC(=O)CNC(=O)[C@H](CCCNC(=N)N)NC(=O)[C@H](C)NC(=O)[C@H](CO)NC(=O)[C@H](CCCNC(=N)N)NC(=O)CNC(=O)CNC(=O)[C@H](C)NC(=O)[C@H](C)NC(=O)CCCC[C@@H]1SC[C@@H]2NC(=O)N[C@@H]21)[C@@H](C)O)C(=O)O [HPV E6 33 (modified)] (Biotin-AAGGRSARGGRLQGRRETAL-OH; C-terminus assumed)	2 (A450 nm 1-2)	2 (A450 nm 1-2)	1 (A450 nm 0-1)
CC(C)C[C@H](NC(=O)[C@H](C)NC(=O)[C@@H](NC(=O)[C@@H](NC(=O)[C@H](Cc1c[nH]cn1)NC(=O)[C@H](CC(C)C)NC(=O)CNC(=O)[C@H](CCC(N)=O)NC(=O)CNC(=O)CNC(=O)[C@H](C)NC(=O)[C@H](C)NC(=O)[C@H](CCCNC(=N)N)NC(=O)[C@H](C)NC(=O)[C@H](CO)NC(=O)[C@H](CC(=O)O)NC(=O)[C@H](CC(=O)O)NC(=O)[C@H](Cc1c[nH]c2ccccc12)NC(=O)[C@H](C)NC(=O)CCCC[C@@H]1SC[C@@H]2NC(=O)N[C@@H]21)C(C)C)[C@@H](C)O)C(=O)O [LPAP] (Biotin-AWDDSARAAGGQGLHVTAL-OH; C-terminus assumed)	5 (A450 nm of 4 more than 2× repeated)	4 (A450 nm 3-4)	
